Test results from patent publication US4864018A, “Anthraquinone derivatives and their use as protein absorbents” (Imperial Chemical Industries PLC, priority 1985, dated 1989).

Biological target: T1, horse liver alcohol dehydrogenase (Equus caballus, UniProt P00327)
T1 construct: from tissue; host or cells: horse liver
Test: affinity of binding with horse liver alcohol dehydrogenase: reduction in rate of enzyme de-activation by CI Reactive Blue 4 in competition with dye
Conditions: carboxylate (i), (ii), (iii) versus sulphonate (iv), (v), (vi) respectively
Procedure: Three dyes of Formula I, in which the COOH group on Ring A is in the ortho (o), meta (m) and para (p) positions respectively, (i), (ii) and (iii) in Table 2, and three analogues in which the COOH groups are replaced by SO3 H groups, (iv), (v) and (vi) in Table 2, were assessed by affinity of binding with horse liver alcohol dehydrogenase. The assessment procedure comprised measuring the reduction in rate of enzyme de-activation by CI Reactive Blue 4 (a highly reactive, dichlorotriazine dye which rapidly deactivates horse liver alcohol dehydrogenase) when of dyes (i) to (vi) was allowed to compete with CI Reactive Blue 4 for the enzyme. From the reductions in rate observed the dissociation constants, KD, of the [enzyme-dye] combinations were calculated and these values are listed in Table 2.

T1 sequence (P00327 2-375 limits assumed): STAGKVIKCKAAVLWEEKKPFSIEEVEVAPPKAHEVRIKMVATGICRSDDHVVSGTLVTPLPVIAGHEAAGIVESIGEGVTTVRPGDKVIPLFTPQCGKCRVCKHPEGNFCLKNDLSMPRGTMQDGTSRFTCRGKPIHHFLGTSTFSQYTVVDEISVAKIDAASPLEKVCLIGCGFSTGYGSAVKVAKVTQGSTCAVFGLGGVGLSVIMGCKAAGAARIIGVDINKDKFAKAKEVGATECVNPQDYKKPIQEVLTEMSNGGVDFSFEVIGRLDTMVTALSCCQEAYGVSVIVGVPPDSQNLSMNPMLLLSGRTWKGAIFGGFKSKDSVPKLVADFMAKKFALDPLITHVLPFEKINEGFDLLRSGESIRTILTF

Structure (SMILES) | binding affinity compared with the corresponding sulphonate analogue
Nc1c(S(=O)(=O)O)cc(Nc2ccc(Nc3nc(Cl)nc(Nc4ccccc4C(=O)O)n3)c(S(=O)(=O)O)c2)c2c1C(=O)c1ccccc1C2=O [(i)] | markedly and surprisingly higher
Nc1c(S(=O)(=O)O)cc(Nc2ccc(Nc3nc(Cl)nc(Nc4cccc(C(=O)O)c4)n3)c(S(=O)(=O)O)c2)c2c1C(=O)c1ccccc1C2=O [(ii)] | markedly and surprisingly higher
Nc1c(S(=O)(=O)O)cc(Nc2ccc(Nc3nc(Cl)nc(Nc4ccc(C(=O)O)cc4)n3)c(S(=O)(=O)O)c2)c2c1C(=O)c1ccccc1C2=O [(iii)] | markedly and surprisingly higher
